No end group written: not given here.
Tests used:
[1] = test system: primary cardiac fibroblasts; test: LDH release assay in primary cardiac fibroblasts (1% hypoxia or normoxia); format: cell-based, rat
Description: H9C2 is a myoblast cell line derived from rat myocardium obtained from ATCC® (CRL-1446, ATCC, Manassas, Va.) and cultured according to the recommended protocols. Briefly, cells were maintained at 37° C. with 5% CO2 in DMEM supplemented with 10% fetal bovine serum and antibiotics (100 U/ml penicillin, […] streptomycin) and split at a ratio of 1:4 using 0.05% trypsin every 36 hours. […]
Cells were rinsed in PMS and grown in DMEM (cat. #11966-025, Gibco) for 2 hours prior to initiating hypoxia (simulated ischemia). […] Three different time points were adopted for each of the three cell lines according to the severity of cell death under hypoxia determined by LDH release: for H9C2 cell line: 8 hr; 16 hr; 24 hr; for HL-1 cell line: 4 hr; 8 hr; 12 hr; […]; 32 hr; 48 hr.
Cell death was first determined using an LDH release assay (cat. #630117, Clontech), according to the manufacturer's instructions. […] Caspase 3/7 activity was next determined using a commercial Caspase 3/7 activity kit (Cat. #G8091, Promega, Madison, Wis. 53711) in a 384 well plate (Cat. #781903, Greiner bio-one) according to the manufacturer's instructions. […] The resulting cell lysates (25 μl, with 0.6 ug total protein) and Caspase-Glo 3/7 Reagent were added to each well in a 1:1 ratio and the luminescence was read (CLARIOstar, BMG LABTECH GmbH). […]

[2] = test system: MK2; test: Immunoblot analysis of MK2 activity (HNRNPA0, total MK2, p-MK2) in primary cardiac fibroblasts; format: cell-based, rat
Description: Cells were rinsed in PMS and grown in DMEM (cat. #11966-025, Gibco) for 2 hours prior to initiating hypoxia (simulated ischemia). Hypoxia was induced by placing cells in a hypoxia chamber ([…] 150i, Thermo Scientific) in a mixture of 5% CO2/95% N2 to attain a 1% oxygen concentration, according to the manufacturer's instruction. […] The MMI-0100 peptide was added to the cells at the start of the ischemia time. Cells were cultured in 12 well plates. At the time of performing the experiments, all cultures were approximately 70-90% confluent. Three different time points were adopted for each of the three cell lines according to the severity of cell death under hypoxia determined by LDH release: for H9C2 cell line: 8 hr; 16 hr; 24 hr; for HL-1 cell line: 4 hr; 8 hr; 12 hr; for cardiac fibroblast cell line: 16 hr; 32 hr; 48 hr.
The left over cell lysates from the Caspase activity assay were used for the Western blots. […] After blocking with recommended blocking reagents for 1 h at the room temperature, the membranes were incubated overnight at 4° C. with primary antibodies in TBS-T, and then incubated with secondary antibodies conjugated with HRP in TBS-T. HNRNPA0, MAPK2, and phospho-MAPK2 proteins were detected using anti-HNRNPA0 (cat. #HPA036569, 1:1000, Sigma-Aldrich), anti-MAPKAPK2 (cat. #SAB4300553, Sigma-Aldrich), and anti-phospho-MAPKAPK2 (cat. #SAB4300241, 1:1000, Sigma-Aldrich). […]

## YARAAARQARAKALARQLGVAA [MMI-0100]
[1]; 16, 32, and 48 hours of hypoxia
  LDH release: significantly enhanced
[1]; absence of hypoxia, 4 hours (so in the source)
  LDH release in normoxic conditions: did not enhance LDH release
[2]; compared to hypoxia alone
  protein levels of MK2 and p-MK2: did not significantly differ
[2]; hypoxia, 16, 32, or 48 hours
  MK2 activity, as measured by HNRNPA0 protein levels: did not change
